# Assay results reported in patent US20250019361A1, “(3-QUINOLYL)-QUINAZOLINE” (BASF SE, priority 2021, published 2025).
# Test system: Septoria tritici
# Experiment: Microtest: activity against leaf blotch on wheat caused by Septoria tritici
# Assay type: cell-based
# Conditions: 8 ppm
# Method: The active compounds were formulated separately as a stock solution having a concentration of 10000 ppm in dimethyl sulfoxide.
# The stock solutions were mixed according to the ratio, pipetted onto a micro titer plate (MTP) and diluted with water to the stated concentrations.
# A spore suspension of Septoria tritici in an aqueous biomalt or yeast-bactopeptone-glycerine or DOB solution was then added.
# The measured parameters were compared to the growth of the active compound-free control variant (100%) and the fungus-free blank value to determine the relative growth in % of the pathogens in the respective active compounds.
smiles,measurement,value
CC1(C)N=C(c2cnc3c(F)cccc3c2)c2ccccc2N1C#N [Ex-8],"growth of the pathogen (relative growth in %, control 100%)",19%
CCCN1c2c(F)cccc2C(c2cnc3c(F)cccc3c2)=NC1(C)C [Ex-11],"growth of the pathogen (relative growth in %, control 100%)",19%
CCN1c2c(F)cccc2C(c2cnc3c(F)cccc3c2)=NC1(C)C [Ex-10],"growth of the pathogen (relative growth in %, control 100%)",19%
CCCCN1c2c(F)cccc2C(c2cnc3c(F)cccc3c2)=NC1(C)C [Ex-9],"growth of the pathogen (relative growth in %, control 100%)",19%
N#CN1c2ccccc2C(c2cnc3c(F)cccc3c2)=NC12CCCC2 [Ex-7],"growth of the pathogen (relative growth in %, control 100%)",19%
